Patent publication US6211158A, “Desazapurine-nucleotide derivatives, processes for the preparation thereof, pharmaceutical compositions containing them and the use thereof for nucleic acid sequencing and as antiviral agents” (Roche Diagnostics GmbH, priority 1987, dated 2001)

Assays:
[1] = Stability of the N-glycosidic bond under acidic conditions, UV-absorbance as a function of time (Example 30); type: physicochemical; set-up: key to stability towards hydrolysis (classified): classified as stable, when no hydrolysis occurred within the hydrolysis time of the corresponding purine-derivatives; details: for half-life: read-out: half life [t(1/2)] of hydrolysis
Experimental: The determination of the stability of the N-glycosidic bond was carried out under acidic conditions by measuring the UV-absorbance as a function of time. The compounds were classified as stable, when no hydrolysis occurred within the hydrolysis time of the corresponding purine-derivatives.
Table of kinetic data with respect to hydrolysis of […]

[2] = Hydrolysis of the N-glycosidic bond in hydrochloric acid at 25° C., UV absorption at 258 nm (Example 29); type: physicochemical; details: for half-life: read-out: half life time T/2 of hydrolysis
Experimental: The stability of the N-glycosidic bond of 2',3'-didesoxynucleosides is bound up with the antiviral activity.
The hydrolysis of the bond was investigated at 25° C. in three different concentrations of hydrochloric acid. For this purpose, the UV absorption (Et) was measured at 258 nm. Via the absorption/time curve, there were determined the velocity constants of the hydrolysis (k) and the half life times (T/2) on the basis of the following equation:
k=1/t×ln(Eo -Eoo)/(Et -Eoo)
Eo being the absorption at time t=0 and Eoo being the absorption after complete termination of the reaction.
There were compared 2',3'-dideoxyadenosine (a) and 6-amino-8-aza-7-deaza-2',3'-dideoxy-9-β-D-ribofuranosylpurine (b) at 25° C.

Nc1nccc2c1ccn2[C@H]1CC[C@@H](CO)O1 [c^3 c^7 ddA, 6-amino-3,7-dideaza-2',3'-dideoxy-9-β-D-ribofuranosylpurine]
stability towards hydrolysis (classified) ([1]; 0.01 N HCl): stable
stability towards hydrolysis (classified) ([1]; 0.1 N HCl): stable
stability towards hydrolysis (classified) ([1]; 1 N HCl): stable

Nc1ncnc2c1ccn2[C@H]1CC[C@@H](CO)O1 [c^7 ddA, 4-Amino-7-(2',3'-dideoxy-β-D-glyceropentofuranosyl)-7H-pyrrolo[2,3-d]pyrimidine]
stability towards hydrolysis (classified) ([1]; 0.01 N HCl): stable
stability towards hydrolysis (classified) ([1]; 0.1 N HCl): stable
stability towards hydrolysis (classified) ([1]; 1 N HCl): stable

Nc1nc2c(ccn2[C@H]2CC[C@@H](CO)O2)c(=O)[nH]1 [c^7 ddG, 2-Amino-7-deaza-2',3'-dideoxy-9-β-D-ribofuranosylpurine-6-one]
stability towards hydrolysis (classified) ([1]; 0.01 N HCl): stable
stability towards hydrolysis (classified) ([1]; 0.1 N HCl): stable
stability towards hydrolysis (classified) ([1]; 1 N HCl): stable

Nc1ncnc2c1cnn2[C@H]1CC[C@@H](CO)O1 [c^7 z^8 ddA, 6-Amino-8-aza-7-deaza-2',3'-dideoxy-9-β-D-ribofuranosylpurine]
velocity constant of the hydrolysis k ([2]; 0.01 N HCl): 0.0025 min⁻¹
half-life ([2]; 0.01 N HCl): 280 min
half-life ([2]; 0.1 N HCl): 20.4 min
half-life ([2]; 1 N HCl): 0.83 min
times more stable than (a) ([2]; compared with 2',3'-dideoxyadenosine (a), HCl): more than 10 times
half-life ([1]; 0.01 n hcl): 280 min
half-life ([1]; 0.1 n hcl): 20.4 min

Nc1nc2c(cnn2[C@H]2CC[C@@H](CO)O2)c(=O)[nH]1 [c^7 z^8 ddG, 2-Amino-(2',3'-dideoxy-β-D-glyceropentofuranosyl)-1H-pyrazolo[3,4-d]pyrimidin-4-one]
half-life ([1]; 0.01 n hcl): 135 min

Nc1ncnc2c1ncn2[C@H]1CC[C@@H](CO)O1 [ddA, 2',3'-dideoxyadenosine, reference compound]
velocity constant of the hydrolysis k ([2]; 0.01 N HCl): 0.022 min⁻¹
half-life ([2]; 0.01 N HCl): 31.5 min
half-life ([2]; 0.1 N HCl): 1.9 min
half-life ([1]; 0.01 n hcl): 31.5 min
half-life ([1]; 0.1 n hcl): 1.9 min

Nc1nc2c(ncn2[C@H]2CC[C@@H](CO)O2)c(=O)[nH]1 [ddG, reference compound]
half-life ([1]; 0.01 n hcl): 37 min
